One assay has as its target T1, D(4) dopamine receptor (Rattus norvegicus, UniProt P30729).
T1 sequence (P30729 whole entry): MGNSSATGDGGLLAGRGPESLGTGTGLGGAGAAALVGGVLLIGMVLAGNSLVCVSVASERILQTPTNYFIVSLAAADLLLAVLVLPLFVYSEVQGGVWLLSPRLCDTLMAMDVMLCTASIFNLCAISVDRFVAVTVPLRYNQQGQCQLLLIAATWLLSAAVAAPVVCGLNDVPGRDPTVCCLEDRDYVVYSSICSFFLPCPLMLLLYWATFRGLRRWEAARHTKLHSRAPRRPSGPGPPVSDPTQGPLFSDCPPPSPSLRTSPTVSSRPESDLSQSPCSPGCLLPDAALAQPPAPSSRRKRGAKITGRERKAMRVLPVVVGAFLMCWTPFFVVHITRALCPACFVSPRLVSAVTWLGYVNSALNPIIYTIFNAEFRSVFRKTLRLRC
Briefly: Binding affinity for rat dopamine D4 receptor using [11C] radiotracer.

For a further assay, the target named is D(2) dopamine receptor (Rattus norvegicus, UniProt P61169). Briefly: Binding affinity towards rat dopamine D2 receptor using [11C] radiotracer.
Assay [1] has as its target Sigma non-opioid intracellular receptor 1 (Rattus norvegicus, UniProt Q9R0C9). Briefly: Binding affinity for rat Opioid receptor sigma 1 using [11C] radiotracer.
The target in a further assay is D(3) dopamine receptor (Rattus norvegicus, UniProt P19020). Briefly: Binding affinity for rat dopamine D3 receptor using [11C]GR-218,231.
For assay [2], the target named is D(3) dopamine receptor (Rattus norvegicus) (UniProt P19020).

Structures are written as SMILES.

Chain of D(2) dopamine receptor (P61169 whole entry): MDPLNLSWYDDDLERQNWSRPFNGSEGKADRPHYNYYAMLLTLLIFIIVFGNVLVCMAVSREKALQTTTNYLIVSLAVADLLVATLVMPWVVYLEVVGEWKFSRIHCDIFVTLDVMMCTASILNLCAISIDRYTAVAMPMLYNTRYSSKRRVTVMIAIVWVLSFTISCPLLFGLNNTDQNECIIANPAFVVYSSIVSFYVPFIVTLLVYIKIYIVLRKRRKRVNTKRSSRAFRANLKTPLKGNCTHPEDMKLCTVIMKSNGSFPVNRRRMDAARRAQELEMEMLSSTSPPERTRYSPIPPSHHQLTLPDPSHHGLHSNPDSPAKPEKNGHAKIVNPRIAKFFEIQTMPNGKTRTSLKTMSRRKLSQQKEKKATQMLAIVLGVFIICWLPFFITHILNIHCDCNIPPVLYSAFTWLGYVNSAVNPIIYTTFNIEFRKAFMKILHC
Chain of Sigma non-opioid intracellular receptor 1 (Q9R0C9 whole entry): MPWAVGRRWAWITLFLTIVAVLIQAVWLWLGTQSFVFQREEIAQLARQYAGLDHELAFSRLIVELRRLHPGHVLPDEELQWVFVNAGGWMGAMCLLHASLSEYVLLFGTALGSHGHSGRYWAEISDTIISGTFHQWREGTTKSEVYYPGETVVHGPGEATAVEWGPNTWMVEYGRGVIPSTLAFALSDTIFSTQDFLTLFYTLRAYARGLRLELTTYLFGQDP
Chain of D(3) dopamine receptor (P19020 whole entry): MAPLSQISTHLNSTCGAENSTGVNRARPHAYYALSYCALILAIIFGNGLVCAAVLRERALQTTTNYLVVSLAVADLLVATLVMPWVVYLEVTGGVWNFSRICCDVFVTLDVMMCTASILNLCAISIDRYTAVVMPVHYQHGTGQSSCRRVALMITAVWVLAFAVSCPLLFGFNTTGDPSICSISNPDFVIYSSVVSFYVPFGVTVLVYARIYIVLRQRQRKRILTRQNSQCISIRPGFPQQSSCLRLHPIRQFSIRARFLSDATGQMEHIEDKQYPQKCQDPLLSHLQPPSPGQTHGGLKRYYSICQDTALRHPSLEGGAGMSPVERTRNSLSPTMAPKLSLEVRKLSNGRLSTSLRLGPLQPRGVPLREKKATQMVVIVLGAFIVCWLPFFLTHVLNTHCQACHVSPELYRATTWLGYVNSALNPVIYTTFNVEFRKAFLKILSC
Chain of D(3) dopamine receptor (Rattus norvegicus) (P19020 whole entry): as above

With `COc1c(C(=O)NCCCCN2CCN(c3cccc(Cl)c3Cl)CC2)ccc2ccccc12`, the Ki at D(4) dopamine receptor amounted to 830 nM; at D(2) dopamine receptor, 720 nM; in assay [1], 342 nM.

Take `COc1cc(Br)cc(C(=O)NCCCCN2CCN(c3cccc(Cl)c3Cl)CC2)c1OC`: the affinity at D(3) dopamine receptor corresponds to a Ki of 2 nM.

Consider `COc1cccc2cc(C(=O)NCCCCN3CCN(c4cccc(Cl)c4Cl)CC3)oc12`, for which the Ki on D(4) dopamine receptor is 373 nM; at D(2) dopamine receptor, 720 nM; in assay [1], 180 nM.

`CCCN(CCC)C1CCc2cc(CS(=O)(=O)c3ccc(OC)cc3)ccc2C1` (stereo not drawn) had a negative logarithm of the Ki (pKi) in assay [2] of 9.

Source of the values: ChEMBL document CHEMBL1140382, “11C-labeling of n-[4-[4-(2,3-dichlorophenyl)piperazin-1-yl]butyl]arylcarboxamide derivatives and evaluation as potential radioligands for PET imaging of dopamine D3 receptors” (J Med Chem, 2005).
